In US12240839B2, “Cyclobutyl dihydroquinoline sulfonamide compounds” (AMGEN INC., priority 2020, dated 2025):

System: CYP3A4
Assay: Human CYP3A4 induction assay (mRNA, cryopreserved human hepatocytes)
Conditions: 10 uM test compound, 72 hours, percent of control (rifampin positive control)
Procedure: Human CYP3A4 Induction Assay
Cryopreserved human hepatocytes were seeded in 96-well collagen coated plates at 70,000 cells per well in hepatocyte plating media (HPM, final concentrations: 1× Dulbecco's Modified Eagle's Medium, 0.1 μM dexamethasone, 10% fetal bovine serum, 1×ITS, 1×PSG) followed by incubation at 37° C. under 5% CO2 and 90% relative humidity for 2 days to allow hepatocytes to form a confluent layer. On Day 3, hepatocytes were treated with either test compound or rifampin (20 μM, positive control for CYP3A induction) prepared in hepatocyte incubation media ((HIM, final concentrations: 1× William's Medium E, 0.1 μM dexamethasone, 1×ITS, 1×PSG). Treatment was performed for 72 hours with either 2 concentrations (2 μM or 10 μM) or a range of concentrations (0.001 μM to 100 μM) of the test compound to obtain full dose-response curve. Fresh media containing the relevant concentrations of the test compound was replaced every day until the samples were processed. After 72 hours of incubation, samples were processed for mRNA analysis using bDNA technology using manufacturer's instructions (Affymetrix, Fremont, CA). Cell viability was tested at the end of the experiment using MTT assay kit (Roche Diagnostics, Basel, Switzerland). Data was analyzed and presented as percent of control (POC) and Emax and EC50 obtained when appropriate according to guidance from Center for Drug Evaluation and Research (CDER), 2006, Guidance for Industry, Drug Interaction Studies—Study Design, Data Analysis, and Implications for Dosing and Labeling.

| SMILES | Hu CYP3A4 mRNA Induction (10 uM POC) |
| --- | --- |
| COc1cc(C2CCC2)c(F)cc1-n1c(=O)ccc2cc(S(=O)(=O)Nc3ccon3)ccc21 (atropisomer, axis not shown; (P)) [Example 14, (P)-1-(4-cyclobutyl-5-fluoro-2-methoxyphenyl)-N-(isoxazol-3-yl)-2-oxo-1,2-dihydroquinoline-6-sulfonamide] | 18.3% |
| COc1cc(C2CCC2)c(F)cc1-n1c(=O)ccc2cc(S(=O)(=O)Nc3cccnn3)ccc21 (atropisomer, axis not shown; (P)) [Example 23, (P)-1-(4-cyclobutyl-5-fluoro-2-methoxyphenyl)-2-oxo-N-(pyridazin-3-yl)-1,2-dihydroquinoline-6-sulfonamide] | 14.37% |
| COc1cc(C2CCC2)ccc1-n1c(=O)ccc2cc(S(=O)(=O)Nc3ncco3)ccc21 (atropisomer, axis not shown; (P)) [Example 29, (P)-1-(4-cyclobutyl-2-methoxyphenyl)-N-(oxazol-2-yl)-2-oxo-1,2-dihydroquinoline-6-sulfonamide] | 34.63% |
| COc1cc(C2CCC2)c(Cl)cc1-n1c(=O)ccc2cc(S(=O)(=O)Nc3ncccn3)ccc21 (atropisomer, axis not shown; (P)) [Example 18, (P)-1-(5-chloro-4-cyclobutyl-2-methoxyphenyl)-2-oxo-N-(pyrimidin-2-yl)-1,2-dihydroquinoline-6-sulfonamide] | 20.78% |
| COc1cc([C@H]2C[C@H](C(F)(F)F)C2)c(F)cc1-n1c(=O)ccc2c(F)c(S(=O)(=O)Nc3ccon3)ccc21 (atropisomer, axis not shown; (P)) [Example 46, trans-(P)-5-fluoro-1-(5-fluoro-2-methoxy-4-(3-(trifluoromethyl)cyclobutyl)phenyl)-N-(isoxazol-3-yl)-2-oxo-1,2-dihydroquinoline-6-sulfonamide] | 6.6% |
| COc1cc([C@H]2C[C@H](C(F)(F)F)C2)c(Cl)cc1-n1c(=O)ccc2cc(S(=O)(=O)Nc3ncco3)ccc21 (atropisomer, axis not shown; (P)) [Example 49, trans (P)-1-(5-chloro-2-methoxy-4-((1R,3R)-3-(trifluoromethyl)cyclobutyl)phenyl)-N-(oxazol-2-yl)-2-oxo-1,2-dihydroquinoline-6-sulfonamide] | 64.94% |
| COc1cc(C2CC(F)(F)C2)c(F)cc1-n1c(=O)ccc2cc(S(=O)(=O)Nc3ccon3)ccc21 (atropisomer, axis not shown; (P)) [Example 4, (P)-1-(4-(3,3-difluorocyclobutyl)-5-fluoro-2-methoxyphenyl)-N-(isoxazol-3-yl)-2-oxo-1,2-dihydroquinoline-6-sulfonamide] | 14.71% |
| COc1cc([C@H]2C[C@H](C(F)(F)F)C2)c(Cl)cc1-n1c(=O)ccc2cc(S(=O)(=O)Nc3cccnn3)ccc21 (atropisomer, axis not shown; (P)) [Example 19, trans-(P)-1-(5-chloro-2-methoxy-4-(3-(trifluoromethyl)cyclobutyl)phenyl)-2-oxo-N-(pyridazin-3-yl)-1,2-dihydroquinoline-6-sulfonamide] | 60.73% |
| COc1cc([C@H]2C[C@@H](C(F)(F)F)C2)c(F)cc1-n1c(=O)ccc2cc(S(=O)(=O)Nc3ccon3)ccc21 (single isomer, unassigned) [Example 6, cis-(P)-1-(5-fluoro-2-methoxy-4-(3-(trifluoromethyl)cyclobutyl)phenyl)-N-(isoxazol-3-yl)-2-oxo-1,2-dihydroquinoline-6-sulfonamide] | 83.89% |
| COc1cc([C@H]2C[C@@H](C(F)(F)F)C2)c(Cl)cc1-n1c(=O)ccc2cc(S(=O)(=O)Nc3ncccn3)ccc21 (atropisomer, axis not shown; (P)) [Example 16, cis-(P)-1-(5-chloro-2-methoxy-4-(3-(trifluoromethyl)cyclobutyl)phenyl)-2-oxo-N-(pyrimidin-2-yl)-1,2-dihydroquinoline-6-sulfonamide] | 130.1% |
| COc1cc(C2CC(F)(F)C2)c(Cl)cc1-n1c(=O)ccc2cc(S(=O)(=O)Nc3ccon3)ccc21 (atropisomer, axis not shown; (P)) [Example 48, (P)-1-(5-chloro-4-(3,3-difluorocyclobutyl)-2-methoxyphenyl)-N-(isoxazol-3-yl)-2-oxo-1,2-dihydroquinoline-6-sulfonamide] | 110.2% |
| COc1cc([C@H]2C[C@H](C(F)(F)F)C2)ccc1-n1c(=O)ccc2cc(S(=O)(=O)Nc3cccnn3)ccc21 (atropisomer, axis not shown; (P)) [Example 38, trans-(P)-1-(2-methoxy-4-(3-(trifluoromethyl)cyclobutyl)phenyl)-2-oxo-N-(pyridazin-3-yl)-1,2-dihydroquinoline-6-sulfonamide] | 4.43% |
| COc1cc(C2CCC2)ccc1-n1c(=O)ccc2cc(S(=O)(=O)Nc3ccon3)ccc21 (atropisomer, axis not shown; (P)) [Example 25, (P)-1-(4-cyclobutyl-2-methoxyphenyl)-N-(isoxazol-3-yl)-2-oxo-1,2-dihydroquinoline-6-sulfonamide] | 18.57% |
| COc1cc(C2CCC2)c(C)cc1-n1c(=O)ccc2cc(S(=O)(=O)Nc3ccon3)ccc21 (atropisomer, axis not shown; (P)) [Example 22, (P)-1-(4-cyclobutyl-2-methoxy-5-methylphenyl)-N-(isoxazol-3-yl)-2-oxo-1,2-dihydroquinoline-6-sulfonamide] | 24.14% |
| COc1cc(C23CC(C(F)(F)F)(C2)C3)c(F)cc1-n1c(=O)ccc2cc(S(=O)(=O)Nc3ccon3)ccc21 (atropisomer, axis not shown; (P)) [Example 42, (P)-1-(5-fluoro-2-methoxy-4-(3-(trifluoromethyl)bicyclo[1.1.1]pentan-1-yl)phenyl)-N-(isoxazol-3-yl)-2-oxo-1,2-dihydroquinoline-6-sulfonamide] | 19.25% |
| COc1cc(C23CC(C(F)(F)F)(C2)C3)c(F)cc1-n1c(=O)ccc2cc(S(=O)(=O)Nc3ncccn3)ccc21 (atropisomer, axis not shown; (P)) [Example 47, (P)-1-(5-fluoro-2-methoxy-4-(3-(trifluoromethyl)bicyclo[1.1.1]pentan-1-yl)phenyl)-2-oxo-N-(pyrimidin-2-yl)-1,2-dihydroquinoline-6-sulfonamide] | 19.64% |
| COc1cc(C2CC2)c(F)cc1-n1c(=O)ccc2cc(S(=O)(=O)Nc3ccon3)ccc21 [Compound X, 1-(4-cyclopropyl-5-fluoro-2-methoxyphenyl)-N-(isoxazol-3-yl)-2-oxo-1,2-dihydroquinoline-6-sulfonamide, reference compound] | 84.31% |
| COc1cc(C2CCC2)c(C)cc1-n1c(=O)ccc2cc(S(=O)(=O)Nc3ncccn3)ccc21 (atropisomer, axis not shown; (P)) [Example 27, (P)-1-(4-Cyclobutyl-2-Methoxy-5-Methylphenyl)-2-Oxo-N-(Pyrimidin-2-Yl)-1,2-Dihydroquinoline-6-Sulfonamide] | 48.14% |
| COc1cc(C2CCC2)c(Cl)cc1-n1c(=O)ccc2cc(S(=O)(=O)Nc3ccon3)ccc21 (atropisomer, axis not shown; (P)) [Example 21, (P)-1-(5-chloro-4-cyclobutyl-2-methoxyphenyl)-N-(isoxazol-3-yl)-2-oxo-1,2-dihydroquinoline-6-sulfonamide] | 17.07% |
| COc1cc(C2CCC2)c(Cl)cc1-n1c(=O)ccc2cc(S(=O)(=O)Nc3ncco3)ccc21 (atropisomer, axis not shown; (P)) [Example 32, (P)-1-(5-chloro-4-cyclobutyl-2-methoxyphenyl)-N-(oxazol-2-yl)-2-oxo-1,2-dihydroquinoline-6-sulfonamide] | 88% |
| COc1cc([C@H]2C[C@H](C(F)(F)F)C2)c(C)cc1-n1c(=O)ccc2cc(S(=O)(=O)Nc3ccon3)ccc21 (atropisomer, axis not shown; (P)) [Example 20, trans-(P)—N-(isoxazol-3-yl)-1-(2-methoxy-5-methyl-4-(3-(trifluoromethyl)cyclobutyl)phenyl)-2-oxo-1,2-dihydroquinoline-6-sulfonamide] | 42.22% |
| COc1cc([C@H]2C[C@@](F)(C(F)(F)F)C2)c(Cl)cc1-n1c(=O)ccc2cc(S(=O)(=O)Nc3ccon3)ccc21 (atropisomer, axis not shown; (P)) [Example 11, trans-(P)-1-(5-chloro-4-(3-fluoro-3-(trifluoromethyl)cyclobutyl)-2-methoxyphenyl)-N-(isoxazol-3-yl)-2-oxo-1,2-dihydroquinoline-6-sulfonamide] | 7.29% |
| COc1cc([C@H]2C[C@H](C(F)(F)F)C2)c(F)cc1-n1c(=O)ccc2cc(S(=O)(=O)Nc3ccon3)c(F)cc21 (atropisomer, axis not shown; (P)) [Example 40, (P)-7-fluoro-1-(5-fluoro-2-methoxy-4-((1R,3R)-3-(trifluoromethyl)cyclobutyl)phenyl)-N-(isoxazol-3-yl)-2-oxo-1,2-dihydroquinoline-6-sulfonamide] | 74.43% |
| COc1cc(C2CCC2)c(C)cc1-n1c(=O)ccc2cc(S(=O)(=O)Nc3ncco3)ccc21 (atropisomer, axis not shown; (P)) [Example 34, (P)-1-(4-cyclobutyl-2-methoxy-5-methylphenyl)-N-(oxazol-2-yl)-2-oxo-1,2-dihydroquinoline-6-sulfonamide] | 69.54% |
| COc1cc([C@H]2C[C@H](C(F)(F)F)C2)c(Cl)cc1-n1c(=O)ccc2cc(S(=O)(=O)Nc3ncccn3)ccc21 (atropisomer, axis not shown; (P)) [Example 17, trans-(P)-1-(5-chloro-2-methoxy-4-(3-(trifluoromethyl)cyclobutyl)phenyl)-2-oxo-N-(pyrimidin-2-yl)-1,2-dihydroquinoline-6-sulfonamide] | 61.91% |
